From patent publication US6864261B2, “Therapeutic agents useful for treating pain” (Euro-Celtique S.A., priority 2002, dated 2005) come the findings set out here.

The assay addresses T1, mGluR5 (Rattus norvegicus, UniProt P31424).
T1 construct: The procedure allows the expression of the mGluR5 receptor by astrocytes; endogenous in cells; host or cells: secondary astrocyte cultures from cortices of Sprague-Dawley E18 embryos, cultured with EGF
Put plainly: Inhibition of glutamate induced calcium mobilization in astrocytes expressing mGluR5 (Fluo-4, Fluorometric Imaging Plate reader). The format is cell-based. Conditions: final glutamate 10 mM (FIG. 1 legend: 10 μM), mean of 3 experiments. Here is the method:
Cell cultures: Primary glial cultures were prepared from cortices of Sprague-Dawley 18 days old embryos. The cortices were dissected and then dissociated by trituration. The resulting cell homogenate was plated onto poly-D-lysine precoated T175 flasks (BIOCOAT, commercially available from Becton Dickinson and Company Inc. of Franklin Lakes, N.J.) in Dulbecco's Modified Eagle's Medium (“DMEM,” pH 7.4), buffered with 25 mM HEPES, and supplemented with 15% fetal calf serum (“FCS,” commercially available from Hyclone Laboratories Inc. of Omaha, Nebr.), and incubated at 37° C. and 5% CO2. After 24 hours, FCS supplementation was reduced to 10%. […]
Assay Protocol: After 3-5 days incubation with EGF, the astrocytes were washed with 127 mM NaCl, 5 mM KCl, 2 mM MgCl2, […] NaH2PO4, 2 mM CaCl2, 5 mM NaHCO3, 8 mM HEPES, 10 mM Glucose at pH 7.4 (“Assay Buffer”) and loaded with the dye Fluo-4 (commercially available from Molecular Probes Inc. of Eugene, Oreg.) using 0.1 mL of Assay Buffer containing Fluo-4 ([…]). […] The plates containing the astrocytes were then transferred to a Fluorometric Imaging Plate reader (commercially available from Molecular Devices Corporation of Sunnyvale, Calif.) for the assessment of calcium mobilization flux in the presence of glutamate and in the presence or absence of antagonist. […] In each experiment each data point was determined two times.
Background: Calcium flux is commonly read through the fluorescence of an indicator in the cells.

SMILES strings stand for the structures.

T1 sequence (P31424 21-1203): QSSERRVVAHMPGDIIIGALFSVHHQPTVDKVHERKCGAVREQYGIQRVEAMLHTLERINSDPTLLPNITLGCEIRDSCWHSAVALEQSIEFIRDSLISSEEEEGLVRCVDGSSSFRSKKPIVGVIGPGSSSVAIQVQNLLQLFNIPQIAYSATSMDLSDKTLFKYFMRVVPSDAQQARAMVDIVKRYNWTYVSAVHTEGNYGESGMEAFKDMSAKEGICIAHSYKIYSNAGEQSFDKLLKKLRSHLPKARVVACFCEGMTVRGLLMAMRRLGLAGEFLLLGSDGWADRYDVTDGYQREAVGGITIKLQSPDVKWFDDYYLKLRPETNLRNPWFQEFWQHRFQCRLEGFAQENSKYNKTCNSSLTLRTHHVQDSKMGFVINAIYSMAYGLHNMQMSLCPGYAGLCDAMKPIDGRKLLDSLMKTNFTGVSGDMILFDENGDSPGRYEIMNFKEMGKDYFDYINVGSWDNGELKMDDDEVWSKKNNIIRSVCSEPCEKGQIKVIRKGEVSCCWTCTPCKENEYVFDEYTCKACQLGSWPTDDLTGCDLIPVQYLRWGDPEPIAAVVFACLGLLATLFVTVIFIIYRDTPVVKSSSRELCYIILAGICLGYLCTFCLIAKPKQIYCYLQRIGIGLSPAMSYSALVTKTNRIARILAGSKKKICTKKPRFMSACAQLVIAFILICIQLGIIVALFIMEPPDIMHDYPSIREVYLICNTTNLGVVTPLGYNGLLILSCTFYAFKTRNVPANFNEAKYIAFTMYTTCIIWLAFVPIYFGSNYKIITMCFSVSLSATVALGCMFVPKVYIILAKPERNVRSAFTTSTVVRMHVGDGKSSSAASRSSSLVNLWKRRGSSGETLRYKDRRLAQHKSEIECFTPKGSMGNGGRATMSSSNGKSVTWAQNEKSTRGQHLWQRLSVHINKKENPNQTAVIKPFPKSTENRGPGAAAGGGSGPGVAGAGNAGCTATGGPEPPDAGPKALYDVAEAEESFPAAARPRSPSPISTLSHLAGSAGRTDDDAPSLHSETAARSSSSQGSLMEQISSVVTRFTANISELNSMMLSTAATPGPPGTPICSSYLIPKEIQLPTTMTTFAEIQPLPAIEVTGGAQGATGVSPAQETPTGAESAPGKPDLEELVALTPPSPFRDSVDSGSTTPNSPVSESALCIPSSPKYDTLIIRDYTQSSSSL

Turning to `O=C(C#Cc1ccccc1)N1CCN(c2ncccc2[N+](=O)[O-])CC1` [Compound AA], the IC50 stood at 8.9 ± 4.8 nM.

By IC50 is commonly meant the point on the concentration scale where inhibition reaches its midpoint.
